{"source": "patent EP2241565A1", "about": "“Aurora kinase inhibitors compounds” (Universität Leipzig, priority 2009, dated 2010)", "key": {"HeLa cells [1]": {"system": "HeLa cells", "assay": "Flow cytometry (FACS) DNA content / cell cycle profile", "assay_type": "cell-based, human", "details": "24 h", "method": "Adherent HeLa cells were routinely passaged and maintained in D-MEM medium supplemented with 10% Fetal Bovine Serum (FBS), 1% Penicillin/Streptomycin and 2 mM L-Glutamine. The cells were cultured at 37 °C; 5% CO2. hTERT-RPE1 cells were grown in DMEM with 10% fetal bovine serum. HeLa cells constitutively expressing green fluorescent protein-conjugated Histone H2B and mRed fluorescent protein-conjugated α-tubulin were maintained in D-MEM medium supplemented with 10% Fetal Bovine Serum (FBS), 1% Penicillin/Streptomycin, 2 mM L-Glutamine and 0.5 µg/mL Puromycin and cultured at 37 °C; 5% CO2.\nAfter treatment, FACS analysis was performed on a BD FACSCanto™ Flow Cytometer (Cat.No. 335860 BD Biosciences) using FACSDiva Software. Cells were trypsinized, washed wish PBS and fixed overnight in EtOH (-20°C). After washing with PBS, cells were stained with a propidium iodide solution (PI; 15 µg/mL)/ RNase A (30 µg/mL) for 30 min at 37 °C. RNase was added to avoid signals caused by the binding of PI to RNA.\nWe first examined by flow cytometry the cell cycle profiles of HeLa cells incubated in medium containing increasing concentrations of any of (A) or (C) for 24 h."}, "HeLa cells [2]": {"system": "HeLa cells", "assay": "Fixed cell analysis of mitotic phenotypes (fluorescence / immunofluorescence)", "assay_type": "cell-based, human", "details": "2 µM, 24 h", "method": "For fixed cell analysis, HeLa or H2B-GFP/mRFP-αTubulin HeLa cells were grown on glass coverslips and treated as described above. Cells were fixed in ice cold methanol and mounted in Mowiol. Alternatively, non fluorescent HeLa were treated and subjected to immunofluorescence with anti-tubulin antibodies (Sigma, DM1A) and Hoechst to stain the DNA. Cells were observed on a Leica DM16000B microscope with the HCX PL APO CS 63x 1.4 objective. Images were taken with a Leica DFC 350FX camera, controlled by Leica Application Suit (LAS-AF 6000) software and processed with Adobe Photoshop.\nTo get a better idea about the defects causing cell division failure in cells treated with (C), we examined fixed cells to better visualize the chromosomes and the microtubules. […] In parallel, standard HeLa cells were treated in the same way. The cells were fixed and processed for immunofluorescence with anti-tubulin antibodies to visualize the microtubules and Hoechst to stain the DNA."}, "[3]": {"system": "H2B-GFP/mRFP-αTubulin HeLa cells", "assay": "Time-lapse video microscopy of live cells", "assay_type": "cell-based, human", "details": "2 µM", "method": "Upon treatment, living cells were added to a humidified chamber at 37 °C with 5% CO2 attached to a Carl Zeiss microscope (SN:3834000366) equipped with a Hamamatsu EM-CCD digital camera, controlled by AxioVision 4.6 software. Cells were imaged every 3 or 4.5 min (depending on the number of fields filmed) for over 16 h-24 h. Images were taken with the AxioCam MRm 426205 objective and processed using AxioVision software.\nThe increase in the proportion of cells with more than 2n DNA content could be due to several causes: several cycles of DNA replication or cytokinesis errors as shown for cells treated with other Aurora inhibitors. To determine the primary cause for the phenotype produced by (C) and examine whether (A) may interfere with mitosis, we examined live cells by time-lapse video microscopy. To visualize DNA and microtubules we used a HeLa stable cell line expressing H2B-GFP and mRFP-αTubulin. […] The resulting time-lapse images were used to determine the following parameters: (1) the percentage of cell death among non dividing cells (Figure 4A), (2) the percentage of cells entering mitosis (Figure 4B), (3) the outcome of mitosis: normal division (cell division), return to interphase without chromatin segregation and without dividing (no division), cytokinesis failure (division errors), cell death without resolving mitosis (cell death) (Figure 4C), and (4) the length of time spent in mitosis (TIM), defined as the interval between DNA condensation and anaphase resolution (Figure 4D)."}, "hTERT-RPE1 cells": {"system": "hTERT-RPE1 cells", "assay": "Cilia disassembly assay", "assay_type": "cell-based", "details": "pretreatment 1-2 µM, serum stimulation after 48 h starvation", "method": "Cilia assembly and disassembly assays were performed as described in Pugacheva et al., Cell 2007, 129, 1351-1363. […] For analysis of cilia disassembly, cilia were assembled by 48 h starvation in Opti-MEM, and disassembled by incubation in DMEM-10% serum. Cells were fixed after 2 and 4 h. […] To visualize the centrosomes and the cilia, fixed cells were immunostained with anti-γ-tubulin (Sigma GTU88) and anti-acetylated-tubulin (Sigma), and DNA was stained with Hoechst."}, "[4]": {"system": "histone H3 phosphorylation on Ser 10", "assay": "Western Blot analysis of histone H3 phosphorylation in mitotic cells", "assay_type": "cell-based, human", "details": "mitotic HeLa cells synchronized with nocodazole, treated 20 h, any of the concentrations tested", "method": "For Western Blot analysis of HH3 phosphorylation levels in mitosis HeLa cells were arrested with 2 mM thymidine for 18 h, released into fresh medium for 6 h, and blocked with 2 µM nocodazole for 16 h. DMSO or the different compounds were added 1 h after thymidine release. Mitotic cells were shaken off and lysed in 50 mM Tris pH 6,8- 2% SDS. Samples were sonicated and boiled. 30 µg protein extract (as determined by Bradford assay, Bio-Rad protein assay) was loaded on SDS-PAGE, transferred to a nitrocellulose membrane and blotted with anti-phospho HH3 (Upstate), anti-Aurora A and anti-tubulin antibodies (Sigma, DM1A)."}}}
{"smiles": "COc1cc2c(Nc3ccc(NC(=O)c4ccccc4)cc3)ncnc2cc1OCCCN1CCOCC1", "note": "[ZM1, reference compound]", "values": [{"measurement": "% of cells 2<n<4", "setting": "HeLa cells [1]; 2µM, HeLa cells", "result": 2.8, "unit": "%"}, {"measurement": "% of cells 2n", "setting": "HeLa cells [1]; 2µM, HeLa cells", "result": 1.2, "unit": "%"}, {"measurement": "% of cells 4n", "setting": "HeLa cells [1]; 2µM, HeLa cells", "result": 51.1, "unit": "%"}, {"measurement": "% of cells <2n", "setting": "HeLa cells [1]; 2µM, HeLa cells", "result": 3.0, "unit": "%"}, {"measurement": "% of cells >4n", "setting": "HeLa cells [1]; 2µM, HeLa cells", "result": 43.5, "unit": "%"}, {"measurement": "effect on DNA content / distribution of cells in the cell cycle stages", "setting": "HeLa cells [1]; ZM1 2 µM, (A) and (C) increasing concentrations", "result": "increased the proportion of cells with 4n and 8n DNA content"}, {"measurement": "mitotic phenotype of fixed cells", "setting": "HeLa cells [2]", "result": "strong increase of the number of mitotic cells showing chromosome alignment defects in metaphase"}, {"measurement": "time spent in mitosis (TIM)", "setting": "[3]", "result": 306, "unit": "min"}, {"measurement": "number of cells entering mitosis", "setting": "[3]; 16 h-24 h", "result": "decreased by half"}, {"measurement": "cells that de-condensed their DNA and went back to interphase without chromosome segregation", "setting": "[3]; of cells in mitosis", "result": 76, "unit": "%"}, {"measurement": "cilia disassembly", "setting": "hTERT-RPE1 cells", "result": "did not have any effect"}, {"measurement": "HH3-Ser10 phosphorylation", "setting": "[4]", "result": "strongly reduced"}]}
